What is called IC50 is the concentration needed to halve the response being measured.

≈ marks a conversion by molar mass, not a printed value.

Results on two compounds are retold here after ChEMBL document CHEMBL1127767, “Synthesis of 19-hydroxy docetaxel from a novel baccatin” (Bioorg Med Chem Lett, 1994).

A short description of assay [1]: Inhibitory activity towards microtubule disassembly relative to paclitaxel evaluated as ID50 compound/ID50 paclitaxel. It is filed as functional.
In a further assay the test system is P388. The assay can be described thus: Cytotoxicity against P388 leukemia cells was calculated. It is filed as functional, cell-based. The conditions noted are these: Mus musculus.

Take `CC(=O)O[C@@]12CO[C@@H]1C[C@H](O)[C@@]1(CO)C(=O)[C@H](O)C3=C(C)[C@@H](OC(=O)[C@H](O)[C@@H](NC(=O)OC(C)(C)C)c4ccccc4)C[C@@](O)([C@@H](OC(=O)c4ccccc4)[C@H]21)C3(C)C`: in assay [1], the ID50 ratio is 0.4. Moreover, the IC50 with P388 was 0.07 µg/mL (≈ 0.085 µM).

Turning to `CC(=O)O[C@@]12CO[C@@H]1C[C@H](O)[C@@]1(C)C(=O)[C@H](O)C3=C(C)[C@@H](OC(=O)[C@H](O)[C@@H](NC(=O)OC(C)(C)C)c4ccccc4)C[C@@](O)([C@@H](OC(=O)c4ccccc4)[C@H]21)C3(C)C`, in assay [1], the ID50 ratio was found to be 0.6.
